These results are taken from publication PMC6302903, “Protein and Chemical Determinants of BL-1249 Action and Selectivity for K2P Channels” (ACS Chemical Neuroscience, 2018).

Assay [1] addresses T1, K2P2.1(TREK-1) F172M (Mus musculus, UniProt P97438, F187M).
T1 construct: expressed in transfected cells; host or cells: Xenopus laevis oocytes, mRNA injected
Put plainly: TEVC of K2P2.1(TREK-1) mutant F172M. Format: cell-based. As to conditions: Xenopus oocytes. From the text:
(§1) To identify K2P2.1(TREK-1) M2 residues that might participate in the BL-1249 response, we mapped the residues that differ between K2P2.1(TREK-1) and K2P4.1(TRAAK) in the context of the K2P2.1(TREK-1) structure[6] (Figure 5B,C). Two K2P2.1(TREK-1) M2 residues stood out as candidates that could explain the reduction in BL-1249 response when the entire M2 helix was replaced with M2 from K2P4.1(TRAAK). One is at the M2/M4 interface and occurs between Phe172 and Arg297 via a π–cation interaction that would be lost when Phe172 is replaced with the equivalent K2P4.1(TRAAK) residue Met134 (Figure 5C, right inset). […] To assess the importance of these interactions in the context of BL-1249 response, we made the K2P2.1(TREK-1) mutants F172M and F185L and measured their responses to BL-1249 (Figure 5D). […]
(§2) Xenopus laevis oocytes were harvested in accordance with UCSF IACUC protocol AN129690 and digested in calcium-free ND-96 (96 mM NaCl, 2 mM KCl, 3.8 mM MgCl2) immediately following harvest, as previously described.[6],[10] […] Defolliculated stage V–VI oocytes were injected with 0.2–6.0 ng of mRNA in 50 nL, and currents were recorded 24–48 h after injection. mRNA was synthesized from plasmid DNA using mMessage mMachine Kit (T7 promoter, Ambion, Life Technologies) and purified using RNEasy Kit (Qiagen). […]

The target in assay [2] is T2, K2P2.1(TREK-1) F185L (Mus musculus, UniProt P97438, F200L).
T2 construct: expressed in transfected cells; host or cells: Xenopus laevis oocytes, mRNA injected
T2 sequence (P97438 1-411 isoform P97438-2 F185L): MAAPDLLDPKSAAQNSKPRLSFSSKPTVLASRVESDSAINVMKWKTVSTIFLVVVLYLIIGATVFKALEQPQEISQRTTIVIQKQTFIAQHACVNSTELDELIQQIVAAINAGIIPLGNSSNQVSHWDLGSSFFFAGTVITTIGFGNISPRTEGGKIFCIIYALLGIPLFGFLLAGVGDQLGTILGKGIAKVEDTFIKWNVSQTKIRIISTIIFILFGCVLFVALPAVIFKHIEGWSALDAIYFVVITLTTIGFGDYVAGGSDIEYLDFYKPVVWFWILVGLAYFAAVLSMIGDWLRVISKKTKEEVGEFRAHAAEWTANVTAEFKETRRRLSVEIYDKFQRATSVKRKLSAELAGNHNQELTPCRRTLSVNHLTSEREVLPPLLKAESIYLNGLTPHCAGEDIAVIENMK
Put plainly: TEVC of K2P2.1(TREK-1) mutant F185L. As to conditions: Xenopus oocytes. Format: cell-based.
Source text: as §1, §2

T1 sequence (P97438 1-411 isoform P97438-2 F172M): as the sequence (P97438 1-411 isoform P97438-2 F185L) above, with F172M, L185F counted along it

Usually EC50 stands for the concentration needed to bring the measured effect to its halfway point. Higher therefore signals lower potency in that assay. As for `c1ccc(-c2nnn[nH]2)c(Nc2cccc3c2CCCC3)c1` [BL-1249, (5,6,7,8-tetrahydro-naphthalen-1-yl)-[2-(1H-tetrazol-5-yl)-phenyl]-amine], the EC50 turned out to be 15 ± 2 µM in assay [1] and 27 ± 5 µM in assay [2].
